In ChEMBL document CHEMBL4130348, “Structure-activity relationship investigation for benzonaphthyridinone derivatives as novel potent Bruton's tyrosine kinase (BTK) irreversible inhibitors” (Eur J Med Chem, 2017):

How the values were obtained:
[1] = target: T1, Tyrosine-protein kinase JAK3 (Homo sapiens, UniProt P52333); experiment: Inhibition of recombinant GST-tagged human JAK3 expressed in baculovirus expression system using poly (4:1 Glu, Tyr) as substrate preincubated for 1 hr followed by substrate addition measured after 1 hr by ADP-glo assay
T1 sequence (P52333 whole entry): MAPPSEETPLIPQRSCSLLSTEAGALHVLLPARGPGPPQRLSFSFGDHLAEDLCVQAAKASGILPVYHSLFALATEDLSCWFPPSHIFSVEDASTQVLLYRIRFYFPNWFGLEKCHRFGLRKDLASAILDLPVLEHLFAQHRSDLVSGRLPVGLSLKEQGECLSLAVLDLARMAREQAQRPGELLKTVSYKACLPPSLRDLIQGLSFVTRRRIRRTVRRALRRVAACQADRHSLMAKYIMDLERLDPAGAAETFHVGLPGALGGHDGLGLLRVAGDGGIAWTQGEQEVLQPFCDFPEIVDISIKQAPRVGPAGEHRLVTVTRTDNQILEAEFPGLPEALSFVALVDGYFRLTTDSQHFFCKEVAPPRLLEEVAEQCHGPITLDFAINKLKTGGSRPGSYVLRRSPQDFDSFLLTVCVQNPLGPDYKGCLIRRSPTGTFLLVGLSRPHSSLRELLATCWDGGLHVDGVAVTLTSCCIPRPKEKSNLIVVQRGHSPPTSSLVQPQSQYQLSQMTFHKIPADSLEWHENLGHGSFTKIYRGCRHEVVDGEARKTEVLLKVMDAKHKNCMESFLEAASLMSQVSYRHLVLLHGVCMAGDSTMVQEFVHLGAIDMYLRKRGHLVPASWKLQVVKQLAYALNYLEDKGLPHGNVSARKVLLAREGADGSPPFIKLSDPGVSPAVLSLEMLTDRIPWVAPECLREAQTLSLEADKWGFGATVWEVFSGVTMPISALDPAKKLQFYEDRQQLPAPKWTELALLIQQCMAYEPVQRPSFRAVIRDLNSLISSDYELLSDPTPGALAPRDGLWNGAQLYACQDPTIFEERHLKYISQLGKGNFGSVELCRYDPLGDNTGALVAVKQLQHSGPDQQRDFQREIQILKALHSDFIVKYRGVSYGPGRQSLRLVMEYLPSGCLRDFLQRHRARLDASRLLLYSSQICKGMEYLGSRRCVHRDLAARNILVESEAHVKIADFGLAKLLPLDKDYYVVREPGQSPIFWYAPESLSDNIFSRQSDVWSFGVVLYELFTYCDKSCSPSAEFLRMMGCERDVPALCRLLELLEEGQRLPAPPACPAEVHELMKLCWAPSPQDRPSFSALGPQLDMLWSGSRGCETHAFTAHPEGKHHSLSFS

[2] = Antiproliferative activity against mouse BA/F3 cells after 72 hrs by CellTiter-Glo assay; assay type: cell-based, BaF3
[3] = target: Epidermal growth factor receptor (Homo sapiens) (UniProt P00533); experiment: Inhibition of TEL-fused EGFR (unknown origin) expressed in mouse BA/F3 cells after 72 hrs by CellTiter-Glo assay; assay type: cell-based
Chain of Epidermal growth factor receptor (Homo sapiens) (P00533 whole entry, the tested form may be a part): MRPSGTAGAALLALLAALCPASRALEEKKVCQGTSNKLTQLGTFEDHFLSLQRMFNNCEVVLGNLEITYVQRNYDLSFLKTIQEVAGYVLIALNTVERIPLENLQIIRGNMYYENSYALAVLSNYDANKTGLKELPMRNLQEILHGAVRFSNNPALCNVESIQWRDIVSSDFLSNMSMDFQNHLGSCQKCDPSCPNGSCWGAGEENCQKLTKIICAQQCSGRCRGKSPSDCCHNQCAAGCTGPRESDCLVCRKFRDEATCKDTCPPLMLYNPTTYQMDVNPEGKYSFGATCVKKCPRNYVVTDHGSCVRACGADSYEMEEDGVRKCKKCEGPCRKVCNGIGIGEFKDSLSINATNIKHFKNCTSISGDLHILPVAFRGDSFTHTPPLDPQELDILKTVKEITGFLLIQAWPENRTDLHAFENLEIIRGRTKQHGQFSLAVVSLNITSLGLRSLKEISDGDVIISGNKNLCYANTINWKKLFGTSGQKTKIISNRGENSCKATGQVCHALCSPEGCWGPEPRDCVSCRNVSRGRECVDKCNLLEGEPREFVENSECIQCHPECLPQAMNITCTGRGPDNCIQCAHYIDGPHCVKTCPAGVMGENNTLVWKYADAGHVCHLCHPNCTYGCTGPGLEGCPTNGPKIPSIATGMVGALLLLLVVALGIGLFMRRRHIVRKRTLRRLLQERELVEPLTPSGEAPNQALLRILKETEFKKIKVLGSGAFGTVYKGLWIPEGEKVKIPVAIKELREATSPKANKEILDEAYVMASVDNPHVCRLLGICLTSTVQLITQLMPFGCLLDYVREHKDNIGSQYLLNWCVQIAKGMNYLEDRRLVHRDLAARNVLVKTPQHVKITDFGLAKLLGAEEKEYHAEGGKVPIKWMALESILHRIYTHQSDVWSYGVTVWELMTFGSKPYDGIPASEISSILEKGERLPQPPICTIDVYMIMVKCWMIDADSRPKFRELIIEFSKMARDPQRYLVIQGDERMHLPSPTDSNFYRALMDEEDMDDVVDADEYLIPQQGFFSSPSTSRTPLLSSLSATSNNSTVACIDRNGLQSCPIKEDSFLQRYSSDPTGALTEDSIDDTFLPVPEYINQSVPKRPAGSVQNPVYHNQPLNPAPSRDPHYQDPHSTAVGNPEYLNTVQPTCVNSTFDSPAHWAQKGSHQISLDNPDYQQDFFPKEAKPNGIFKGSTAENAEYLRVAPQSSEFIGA

[4] = system: Epidermal growth factor receptor (Homo sapiens), P00533 [L858R,T790M]; experiment: Inhibition of TEL-fused EGFR T790M/L858R mutant (unknown origin) expressed in mouse BA/F3 cells after 72 hrs by CellTiter-Glo assay; assay type: cell-based
Chain of Epidermal growth factor receptor (Homo sapiens), P00533 [L858R,T790M] (P00533 whole entry T790M/L858R, looked up, the tested form may be a part): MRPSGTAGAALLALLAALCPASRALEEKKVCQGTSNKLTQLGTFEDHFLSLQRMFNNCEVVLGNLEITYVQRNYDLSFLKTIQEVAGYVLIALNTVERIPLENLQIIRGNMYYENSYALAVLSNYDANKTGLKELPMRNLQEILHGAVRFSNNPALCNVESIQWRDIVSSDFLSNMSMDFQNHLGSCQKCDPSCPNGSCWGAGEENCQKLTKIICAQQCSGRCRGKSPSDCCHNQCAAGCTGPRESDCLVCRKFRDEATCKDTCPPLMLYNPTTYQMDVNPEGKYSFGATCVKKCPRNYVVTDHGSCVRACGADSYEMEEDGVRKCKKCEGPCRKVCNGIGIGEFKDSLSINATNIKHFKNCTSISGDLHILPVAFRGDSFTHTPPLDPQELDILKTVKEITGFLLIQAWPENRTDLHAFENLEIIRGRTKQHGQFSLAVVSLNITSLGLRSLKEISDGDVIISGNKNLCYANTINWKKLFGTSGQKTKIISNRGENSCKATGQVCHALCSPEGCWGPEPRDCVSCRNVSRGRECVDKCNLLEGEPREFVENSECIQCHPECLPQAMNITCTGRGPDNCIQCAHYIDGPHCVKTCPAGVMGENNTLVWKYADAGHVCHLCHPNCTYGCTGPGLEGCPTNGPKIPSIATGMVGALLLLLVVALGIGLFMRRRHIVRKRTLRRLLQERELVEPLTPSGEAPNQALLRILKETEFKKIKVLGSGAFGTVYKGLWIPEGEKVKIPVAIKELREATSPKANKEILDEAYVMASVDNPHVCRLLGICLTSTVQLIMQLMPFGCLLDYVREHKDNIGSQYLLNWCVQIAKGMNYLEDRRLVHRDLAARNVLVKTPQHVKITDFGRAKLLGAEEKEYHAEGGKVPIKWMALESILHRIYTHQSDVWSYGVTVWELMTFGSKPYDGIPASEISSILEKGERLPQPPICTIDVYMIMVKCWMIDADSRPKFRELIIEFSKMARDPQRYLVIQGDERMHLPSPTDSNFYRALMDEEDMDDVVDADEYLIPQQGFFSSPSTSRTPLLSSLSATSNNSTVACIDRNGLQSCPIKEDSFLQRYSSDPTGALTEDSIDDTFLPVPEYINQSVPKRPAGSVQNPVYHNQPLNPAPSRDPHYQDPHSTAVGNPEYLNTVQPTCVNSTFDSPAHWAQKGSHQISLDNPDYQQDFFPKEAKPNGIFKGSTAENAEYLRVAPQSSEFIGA

[5] = target: Tyrosine-protein kinase JAK2 (Homo sapiens) (UniProt O60674); experiment: Inhibition of TEL-fused JAK2 (unknown origin) expressed in mouse BA/F3 cells after 72 hrs by CellTiter-Glo assay; assay type: cell-based
Chain of Tyrosine-protein kinase JAK2 (Homo sapiens) (O60674 whole entry, the tested form may be a part): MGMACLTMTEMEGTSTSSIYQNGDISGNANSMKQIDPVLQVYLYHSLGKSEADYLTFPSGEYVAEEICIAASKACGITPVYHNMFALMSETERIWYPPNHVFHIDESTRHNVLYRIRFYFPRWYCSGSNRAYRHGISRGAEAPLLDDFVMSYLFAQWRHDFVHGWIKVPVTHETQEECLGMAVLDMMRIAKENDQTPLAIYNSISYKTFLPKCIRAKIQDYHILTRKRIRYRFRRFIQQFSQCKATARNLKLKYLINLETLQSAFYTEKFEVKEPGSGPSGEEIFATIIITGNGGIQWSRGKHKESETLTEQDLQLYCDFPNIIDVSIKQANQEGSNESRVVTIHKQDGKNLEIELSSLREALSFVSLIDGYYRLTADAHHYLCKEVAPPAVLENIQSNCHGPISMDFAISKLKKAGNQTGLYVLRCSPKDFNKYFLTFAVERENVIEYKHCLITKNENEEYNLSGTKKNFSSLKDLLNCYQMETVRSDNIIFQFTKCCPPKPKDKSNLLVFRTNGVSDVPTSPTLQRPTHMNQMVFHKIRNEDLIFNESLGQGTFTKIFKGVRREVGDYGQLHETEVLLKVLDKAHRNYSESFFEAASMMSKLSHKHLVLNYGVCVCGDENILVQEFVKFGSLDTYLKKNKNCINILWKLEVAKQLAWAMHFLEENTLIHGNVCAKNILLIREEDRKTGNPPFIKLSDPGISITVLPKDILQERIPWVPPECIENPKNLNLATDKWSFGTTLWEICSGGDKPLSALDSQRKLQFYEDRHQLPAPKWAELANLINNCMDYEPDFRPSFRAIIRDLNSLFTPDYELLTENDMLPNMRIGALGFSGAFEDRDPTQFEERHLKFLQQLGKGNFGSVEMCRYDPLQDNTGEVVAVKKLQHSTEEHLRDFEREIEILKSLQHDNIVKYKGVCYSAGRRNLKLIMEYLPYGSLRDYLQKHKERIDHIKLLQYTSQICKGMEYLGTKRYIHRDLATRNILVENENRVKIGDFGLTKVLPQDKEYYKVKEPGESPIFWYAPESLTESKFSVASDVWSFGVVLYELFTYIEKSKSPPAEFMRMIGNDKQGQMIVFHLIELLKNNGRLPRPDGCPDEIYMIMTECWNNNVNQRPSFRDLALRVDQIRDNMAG

[6] = system: HCT-116; experiment: Antiproliferative activity against human HCT116 cells after 72 hrs by CellTiter-Glo assay; assay type: functional; details: HCT-116, 72 h
[7] = system: NCI-H460; experiment: Antiproliferative activity against human NCI-H460 cells after 72 hrs by CellTiter-Glo assay; assay type: functional; details: NCI-H460, 72 h
[8] = system: A549; experiment: Antiproliferative activity against human A549 cells after 72 hrs by CellTiter-Glo assay; assay type: functional; details: A549, 72 h
[9] = system: NCI-H358; experiment: Antiproliferative activity against human NCI-H358 cells after 72 hrs by CellTiter-Glo assay; assay type: functional; details: NCI-H358, 72 h
[10] = system: NCI-H1975; experiment: Antiproliferative activity against human NCI-H1975 cells after 72 hrs by CellTiter-Glo assay; assay type: functional; details: NCI-H1975, 72 h
[11] = system: HeLa; experiment: Antiproliferative activity against human HeLa cells after 72 hrs by CellTiter-Glo assay; assay type: functional
[12] = system: DU-145; experiment: Antiproliferative activity against human DU145 cells after 72 hrs by CellTiter-Glo assay; assay type: functional; details: DU-145, 72 h
[13] = Antiproliferative activity against human RV1 cells after 72 hrs by CellTiter-Glo assay; assay type: functional; details: RV-1, 72 h
[14] = system: LNCaP C4-2; experiment: Antiproliferative activity against human C4-2 cells after 72 hrs by CellTiter-Glo assay; assay type: functional; details: LNCaP C4-2, 72 h
[15] = system: SU-DHL-2; experiment: Antiproliferative activity against human SUDHL2 cells after 72 hrs by CellTiter-Glo assay; assay type: functional; details: SU-DHL-2, 72 h
[16] = system: Pfeiffer; experiment: Antiproliferative activity against human Pfeiffer cells after 72 hrs by CellTiter-Glo assay; assay type: functional
[17] = system: Ramos; experiment: Antiproliferative activity against human Ramos cells after 72 hrs by CellTiter-Glo assay; assay type: functional
[18] = system: NAMALVA; experiment: Antiproliferative activity against human NAMALWA cells after 72 hrs by CellTiter-Glo assay; assay type: functional
[19] = system: U-937; experiment: Antiproliferative activity against human U937 cells after 72 hrs by CellTiter-Glo assay; assay type: functional; details: U-937, 72 h
[20] = system: MOLM-14; experiment: Antiproliferative activity against human MOLM14 cells after 72 hrs by CellTiter-Glo assay; assay type: functional; details: MOLM-14, 72 h
[21] = Antiproliferative activity against human MOLM16 cells after 72 hrs by CellTiter-Glo assay; assay type: functional; details: MOLM16, 72 h
[22] = system: HEL; experiment: Antiproliferative activity against human HEL cells after 72 hrs by CellTiter-Glo assay; assay type: functional
[23] = system: SKM-1; experiment: Antiproliferative activity against human SKM1 cells after 72 hrs by CellTiter-Glo assay; assay type: functional; details: SKM-1, 72 h
[24] = system: NOMO-1; experiment: Antiproliferative activity against human NOMO1 cells after 72 hrs by CellTiter-Glo assay; assay type: functional; details: NOMO-1, 72 h
[25] = system: OCI-AML-3; experiment: Antiproliferative activity against human OCI-AML3 cells after 72 hrs by CellTiter-Glo assay; assay type: functional; details: OCI-AML-3, 72 h
[26] = system: OCI-AML2; experiment: Antiproliferative activity against human OCI-AML2 cells after 72 hrs by CellTiter-Glo assay; assay type: functional; details: OCI-AML2, 72 h
[27] = system: K562; experiment: Antiproliferative activity against human K562 cells after 72 hrs by CellTiter-Glo assay; assay type: functional; details: K562, 72 h
[28] = system: JVM-2; experiment: Antiproliferative activity against human JVM2 cells after 72 hrs by CellTiter-Glo assay; assay type: functional; details: JVM-2, 72 h
[29] = cells; assay type: functional; details: Homo sapiens, CLL cell, 72 h
[30] = cells; assay type: functional; details: Homo sapiens, CLL cell, 72 h; remark: listed apart in the source
[31] = cells; assay type: functional; details: Homo sapiens, CLL cell, 72 h; remark: listed apart in the source

| IC50 [1] [µM] | GI50 [3] [µM] | GI50 [4] [µM] | GI50 [5] [µM] | GI50 [6] [µM] | GI50 [7] [µM] | GI50 [8] [µM] | GI50 [9] [µM] | GI50 [10] [µM] | GI50 [11] [µM] | GI50 [12] [µM] | GI50 [14] [µM] | GI50 [15] [µM] | GI50 [17] [µM] | GI50 [19] [µM] | GI50 [20] [µM] | SMILES | GI50 at 72 h [2] [µM] | GI50 [13] [µM] | GI50 [16] [µM] | GI50 [18] [µM] | other results |
| --- | --- | --- | --- | --- | --- | --- | --- | --- | --- | --- | --- | --- | --- | --- | --- | --- | --- | --- | --- | --- | --- |
| > 10 | > 10 | > 10 | > 10 | > 10 | > 10 | > 10 | > 10 | > 10 | > 10 | > 10 | > 10 | > 10 | > 10 | > 10 | > 10 | CCC(=O)Nc1cc(-n2c(=O)ccc3cnc4ccc(-n5cccn5)cc4c32)ccc1C | > 10 | > 10 | > 10 | > 10 | GI50 [21]: > 10 µM; GI50 [22]: > 10 µM; GI50 [23]: > 10 µM; GI50 [24]: > 10 µM; GI50 [25]: > 10 µM; GI50 [26]: > 10 µM; GI50 [27]: > 10 µM; GI50 [28]: > 10 µM; GI50 [29]: > 10 µM; GI50 [30]: > 10 µM; GI50 [31]: > 10 µM |
| > 10 | 2.66 | 1.59 | 2.1 | > 10 | > 10 | 3.7 | > 10 | 5.57 | > 10 | > 10 | > 10 | > 10 | 3.5 | > 10 | 1.5 | C=CC(=O)Nc1cc(-n2c(=O)ccc3cnc4ccc(-n5cccn5)cc4c32)ccc1C | > 10 | > 10 | 5.8 | 4.5 | GI50 [21]: 1.4 µM; GI50 [22]: 1.8 µM; GI50 [23]: 2.5 µM; GI50 [24]: 4.9 µM; GI50 [25]: 5.6 µM; GI50 [26]: 7.8 µM; GI50 [27]: > 10 µM; GI50 [28]: 3.4 µM; GI50 [29]: 10.3 µM; GI50 [30]: 2.4 µM; GI50 [31]: 2.9 µM |
